Patent US10329258B2, “CGAS in systemic lupus erythematosus (SLE)” (UNIVERSITY OF WASHINGTON, priority 2015, dated 2019)
“Also recorded” adds a separate entry of the source. Read-outs that look alike come from different tables or passages of the source.

Assays:
cGAS = biological target: T1, cGAS (Homo sapiens, UniProt Q8N884); test: cGAS activity assay: cGAMP production quantified by TLC (IC50 Enzyme Assay); format: biochemical; conditions: for inhibitory activity on cGAMP production, in words: TLC, FIG. 2C
T1 construct: made in house; host or cells: E. coli Rosetta BL21 pLysS
T1 sequence (Q8N884 whole entry, species assumed): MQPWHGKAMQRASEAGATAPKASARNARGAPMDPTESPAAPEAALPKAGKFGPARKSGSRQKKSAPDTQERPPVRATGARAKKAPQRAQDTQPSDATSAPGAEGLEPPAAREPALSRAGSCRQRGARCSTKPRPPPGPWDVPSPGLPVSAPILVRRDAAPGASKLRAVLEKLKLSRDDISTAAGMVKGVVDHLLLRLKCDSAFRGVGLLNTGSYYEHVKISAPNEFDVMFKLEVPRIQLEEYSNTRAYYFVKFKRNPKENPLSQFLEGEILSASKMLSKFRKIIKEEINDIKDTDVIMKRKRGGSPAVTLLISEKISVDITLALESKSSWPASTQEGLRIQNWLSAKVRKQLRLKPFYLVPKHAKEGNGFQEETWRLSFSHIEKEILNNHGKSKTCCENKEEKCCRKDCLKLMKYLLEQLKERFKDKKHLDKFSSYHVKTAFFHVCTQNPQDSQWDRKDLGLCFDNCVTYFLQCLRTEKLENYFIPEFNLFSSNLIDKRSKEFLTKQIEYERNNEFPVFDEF
Description: HCQ belongs to a family of antimalarial drugs that share the structure of aminoquinolines. To rapidly screen these antimalarial drugs for their ability to interfere with cGAS activation by ds-DNA, we performed dose titration experiments with drug and quantified cGAMP production using thin layer chromatography (TLC) (FIG. 2A). Reactions were performed in triplicate and normalized to no-inhibitor controls and fit by non-linear regression using Prism […]™ to determine the IC50 of each compound. Each compound yielded dose-response curves similar to HCQ but with different inhibitory activities (FIG. 2B). […] Strikingly, the computational predicted binding affinities of these anti-malaria drugs inversely correlated with the IC50 of anti-malarial drugs, validating the prediction of our computational analysis (FIG. 2D).
Initial characterization of enzyme activity was monitored in the presence of 250 μM ATP, 250 μM GTP, 0-500 μg/mL herring testes DNA, 1.4 μM cGAS, 3.3 nM ^32P-γ-ATP in a buffer composed of 40 mM Tris, 250 mM NaCl, 10 mM MgCl2, pH 7.5. Reactions were incubated for 1 hr at room temperature and subsequently spotted on PEI-cellulose TLC plates and developed using a solvent composition 1:1.5 [v/v] saturated NH4SO4 and 1.5 M KH2PO4 [pH 3.6]. For inhibition assays, compounds were characterized in the presence of the above reaction contents at fixed 100 μg/mL htDNA. TLC plates were exposed to a phosphor-storage screen and imaged using a TYPHOON™ imaging system. (See FIGS. 7-16).
cGAS activity was monitored in the presence of 250 μM ATP, 250 μM GTP, 0-500 μg/ml herring testes DNA. 1.4 μM cGAS. and 3.3 nM [^32P]-ATP in Tris buffer (pH 7.5). After incubation for 1 h at room temperature, samples were spotted on PEI-cellulose Thin Layer Chromatograph (TLC) plates, and developed using a solvent composed of 1:1.5 [v/v] saturated NH4SO4 and 1.5 M KH2PO4 [pH 3.6]. For inhibition assays, compounds were characterized in the presence of the above reaction contents at fixed 100 μg/ml HT DNA. TLC plates were exposed to a phosphor-storage screen and imaged using a TYPHOOON™ imaging system. (FIG. 7).
Thin Layer Chromatograph (TLC) assay was used for the quantification of cGAS inhibition by compounds X5/X6/X7. Reactions were normalized to no-inhibitor controls and fit by non-linear regression using Prizm […]™ to determine the IC50 of each compound. (FIG. 7).

[1] = tested on: IFNb production by THP1 cells; test: IFNb expression by QPCR in THP1 cells transfected with herring testis DNA; format: cell-based; conditions: for IC50: Homo sapiens, read-out: IC50 of inhibition of IFNb production by THP1 cells; for inhibition of IFNb production, effectiveness in words: THP1 cells transfected with DNA, compared with Quinacrine, AMCA, HCQ, Chloroquine
Excerpt: Systemic Lupus Erythematosus (SLE) is strongly associated with increased expression of type I interferon (IFN-I) (Elkon, 2012). Both genetic as well as experimental studies indicate that IFN-I plays a central role in this disease (Lovgren, 2006) (Niewold, 2007). To determine the physiological relevance of our computational analysis and in vitro observance, we examined whether antimalarial drugs could inhibit IFNb production within the cell. […] Using this approach, we transfected THP1 cells with DNA in the presence or absence of antimalarial compounds and quantified IFNb expression by QPCR.
THP1 cells (0.2×10^6) were transfected with 0.5 ug herring testis DNA using Lipofectamine 2000 (Invitrogen) according to the manufacture's instruction. Before transfection, THP1 cells were incubated with different concentration of Hydroxychloroquine or other antimalarial drugs (100, 50, 25, 12.5 μM) for 5 minutes. Cells were stimulated for 16 hours and then harvested for RNA extraction.
Total RNA was isolated from THP1 cells using the RNeasy mini kit (Qiagen, Valencia, Calif.). cDNA was synthesized using 100 ng RNA with the high-capacity cDNA RT-KIT™ using random primers (Applied Biosystems, Foster City, Calif.). Reactions in duplicate were run on an ABI STEPONE PLUS™ using the primers from Qiagen (primer catalog number): a two-stage cycle of 95° C. for 15 s and 60° C. for 1 min was repeated for 40 cycles followed by a dissociation stage. Threshold cycle values were set as a constant threshold at 0.2, and fold changes in gene expression were then calculated using the 2^−ΔΔ^CT method.

dsDNA/cGAS complex = biological target: T2, dsDNA/cGAS complex (Homo sapiens, UniProt Q8N884); test: Electrophoretic mobility shift assay (EMSA) of dsDNA (ISD) binding to cGAS; conditions: 0.2 μM ISD, 1.5 μM cGAS, HCQ 0.075~5 mM
T2 construct: made in house; host or cells: E. coli Rosetta BL21 pLysS
T2 sequence (Q8N884 whole entry, species assumed, one chain of several): as the sequence (Q8N884 whole entry, species assumed) above
Excerpt: To determine whether these anti-malarial drugs could inhibit DNA binding to cGAS in vitro, we performed DNA binding studies by the electrophoretic mobility shift assay (EMSA). As previously shown, addition of increasing concentrations of cGAS to a constant concentration of ds DNA (ISD), results in the protein retarding migration of ISD on the gel (‘gel shift’) and less free DNA (FIG. 1, left panel). To test whether HCQ as a model antimalarial could attenuate the gel shift, we used constant concentrations of both ISD and cGAS (FIG. 1, right panel) in the presence of increasing concentrations of HCQ. As shown, increasing the concentration of HCQ reduced the gel shift caused by the formation of dsDNA/cGAS complexes and led to increasing free DNA at the bottom of the gel. […] Inhibition of formation of dsDNA/cGAS higher order complexes by antimalarial drugs are especially interesting and important since cGAS is activated by dsDNA induced oligomerization and dsDNA/cGAS complex formation is required for cGAS activation.
Electrophoretic mobility shift assay (EMSAs) were performed to measure the DNA-binding ability with or without HCQ in vitro. […] The mixtures were resolved on 1% agarose gel using 1×TBE electrophoresis buffer of at constant voltage of 100 V. The gel was analyzed by using a fluorescence-based EMSA kit (Molecular Probes) according to the manufacturer's protocol. […]

STING = STING (Homo sapiens, UniProt Q86WV6); test: Binding of 32P-c-di-AMP by STING in the presence of HCQ; conditions: 32P-c-di-AMP (2 nM), STING (170 μM), different HCQ concentrations
Chain of STING (Q86WV6 whole entry H232R, species assumed): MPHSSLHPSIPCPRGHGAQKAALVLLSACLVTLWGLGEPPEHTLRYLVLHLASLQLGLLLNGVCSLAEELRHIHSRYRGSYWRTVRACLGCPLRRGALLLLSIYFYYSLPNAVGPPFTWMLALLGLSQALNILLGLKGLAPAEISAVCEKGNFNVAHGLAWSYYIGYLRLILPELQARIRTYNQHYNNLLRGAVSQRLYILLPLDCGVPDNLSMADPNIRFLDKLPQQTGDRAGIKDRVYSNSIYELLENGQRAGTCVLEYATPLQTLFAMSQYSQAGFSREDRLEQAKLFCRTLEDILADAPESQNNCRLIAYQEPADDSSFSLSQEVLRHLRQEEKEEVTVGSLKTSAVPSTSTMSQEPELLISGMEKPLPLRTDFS

THP1 cells = test: PolyIC Lipofectamine transfection of THP1 cells, IL-1b by ELISA; format: cell-based; conditions: PolyIC transfected THP1 cells, different concentration of HCQ
Excerpt: PolyIC was transfected by Lipofectamine to THP1 cells with different concentration of HCQ.

3 cell lines = test: Toxicity, average of 3 cell lines @ 50% cell death; format: cell-based
[2] = THP-1, THP1 cells transfected with herring testis DNA, 16 hours, QPCR
[3] = cGAS, fixed 100 μg/mL herring testes DNA, TLC of cGAMP, read-out: IC50 Enzyme Assay

| SMILES | inhibitory activity on cGAMP production, in words (cGAS) | IC50 (cGAS; [3]) [µM] | further results |
| --- | --- | --- | --- |
| CCN(CCO)CCCC(C)Nc1ccnc2cc(Cl)ccc12 (stereo not drawn) [HCQ, hydroxychloroquine] | intermediate inhibitory activities |  | IC50 [1, 2]: 3 to 25 µM; effect on dsDNA/cGAS binding (gel shift) (dsDNA/cGAS complex): blocked dsDNA/cGAS binding; also recorded: inhibits the DNA binding to cGAS; effect on c-di-AMP binding to STING (STING): not c-di-AMP to STING; effect on Lipofectamine transfection efficiency (IL-1b production) (THP1 cells): did not interfere with the Lipofectamine transfection efficiency |
| CCN(CC)CCCC(C)Nc1c2ccc(Cl)cc2nc2ccc(OC)cc12 (stereo not drawn) [Quinacrine, quinacrine] | relatively potent inhibitors |  | IC50 [1, 2]: 3 to 25 µM |
| CCN(CCO)CCCC(C)Nc1ccnc2cc(Cl)ccc12 (stereo not drawn) [compound 1, hydroxychloroquine] |  | 350 |  |
| CCN(CC)CCCC(C)Nc1ccnc2cc(Cl)ccc12 (stereo not drawn) [compound 2, Chloroquine] | intermediate inhibitory activities | 850 | IC50 ([1]; THP-1, 16 h): 3 to 25 µM |
| COc1cc(NC(C)CCCN)c2ncccc2c1 (stereo not drawn) [compound 3, Primaquine] | very low inhibitory activity | 850 | inhibition of IFNb production, effectiveness in words [1]: less effective by about one log order |
| C=C[C@H]1CN2CC[C@H]1C[C@H]2[C@H](O)c1ccnc2ccc(OC)cc12 [compound 5, Quinine] | very low inhibitory activity | 2000 | inhibition of IFNb production, effectiveness in words [1]: less effective by about one log order |
| COc1ccc2nc3cc(Cl)ccc3c(N)c2c1 [compound 6, 9-amino-6-chloro-2-methoxyacridine] | relatively potent inhibitors |  | IC50 (cGAS): 32 µM; IC50 ([1]; THP-1, 16 h): 3 to 25 µM |
| O=C(O)[C@H](Cc1c[nH]c2ccccc12)Nc1c2ccccc2nc2ccccc12 [compound 9] |  | > 650 |  |
| CCOC(=O)c1ccc(Nc2c3ccccc3nc3ccccc23)cc1 [compound 10] |  | > 650 |  |
| O=[N+]([O-])c1cccc(Nc2c3ccccc3nc3ccccc23)c1 [compound 11] |  | > 650 |  |
| COc1cc(NS(C)(=O)=O)ccc1Nc1c2ccccc2nc2ccccc12 [compound 12] |  | > 650 |  |

Further lines, with some results ahead:

| inhibitory activity on cGAMP production, in words (cGAS) | IC50 (cGAS; [3]) [µM] | SMILES | further results |
| --- | --- | --- | --- |
|  | 13 | CCN(CC)CCCC(C)Nc1c2ccc(Cl)cc2nc2ccc(OC)cc12 (stereo not drawn) [compound 4, quinacrine] | Toxicity (3 cell lines): 33.0 µM |
|  | 10 | CCOc1ccc2nc3cc(N)ccc3c(N)c2c1 [compound 7] |  |
|  | 5 | Nc1c2ccccc2nc2ccccc12 [compound 8] |  |
|  | 18 | COc1ccc2nc3cc(N)ccc3c(N(C)CCCN(C)Cc3ccccc3)c2c1 [compound 13, 9-(N-benzyl-N-methyl-N′-methyl-1′,3′-propanediamine)-3-amino-7-methoxyacridine] | Toxicity (3 cell lines): 33.1 µM |
|  | 23 | COc1ccc2nc3cc(N)ccc3c(N(C)CCCN(C)Cc3ccncc3)c2c1 [compound 14] | Toxicity (3 cell lines): 27.4 µM |
|  | 35 | COc1ccc2nc3cc(N)ccc3c(N(C)CCCN(C)Cc3ccco3)c2c1 [compound 15, 9-(N-furfuryl-N-methyl-N′-methyl-1′,3′-propanediamine)-3-amino-7-methoxyacridine] |  |
|  | 8 | CN(C)c1ccc2cc3ccc(N(C)C)cc3nc2c1 [compound 20] |  |
|  | 1 | NCCCCNc1c2ccccc2nc2ccccc12 [compound 21] | Toxicity (3 cell lines): 16.0 µM |
